We go through 13 compounds from ChEMBL document CHEMBL3797107, “Discovery of 5-(methylthio)pyrimidine derivatives as L858R/T790M mutant selective epidermal growth factor receptor (EGFR) inhibitors” (Bioorg Med Chem, 2016).

Each structure is given as a SMILES string. Active and inactive are the calls of the source. No cut-off for these calls is given here.

Series [1] deals with Epidermal growth factor receptor (Homo sapiens), P00533 [L858R,T790M]. In words: Inhibition of EGFR T790M/L858R mutant phosphorylation in EGF-stimulated human NCI-H1975 cells preincubated for 2 hrs followed by EGF addition for 10 mins by western blot analysis. The format is cell-based.
The test system is the same in series [2]. In words: Inhibition of EGFR T790M/L858R mutant in EGF-stimulated human NCI-H1975 cells assessed as decrease in phosphorylated Akt level at 0.001 to 1 uM preincubated for 2 hrs followed by EGF addition for 10 mins by western blot analysis. The format is cell-based.
Series [3] shares this test system. Put plainly: Inhibition of EGFR T790M/L858R mutant in EGF-stimulated human NCI-H1975 cells assessed as decrease in phosphorylated Erk level at 0.001 to 1 uM preincubated for 2 hrs followed by EGF addition for 10 mins by western blot analysis. The format is cell-based.
For the next series, the system named is A-431. In words: Antiproliferative activity against human A431 cells overexpressing wild-type EGFR after 72 hrs by SRB assay. Conditions: A-431, 72 h. The format is functional, cell-based.
Series [4] relates to NCI-H1975. Put plainly: Antiproliferative activity against human NCI-H1975 cells expressing EGFR T790M/L858R mutant after 72 hrs by SRB assay. The format is functional, cell-based. To be noted: NCI-H1975, 72 h.
In series [5] the target is T1, Epidermal growth factor receptor (Homo sapiens, UniProt P00533). In words: Inhibition of wild-type EGFR (unknown origin) expressed in baculovirus expression system after 1 hr by ELISA.
The target of series [6] is Epidermal growth factor receptor (Homo sapiens, UniProt P00533, L858R/T790M). In words: Inhibition of EGFR T790M/L858R mutant (unknown origin) expressed in baculovirus expression system after 1 hr by ELISA.
The subject of series [7] is Epidermal growth factor receptor (Homo sapiens), P00533 [L858R,T790M]. Put plainly: Inhibition of EGFR T790M/L858R mutant in EGF-stimulated human NCI-H1975 cells assessed as decrease in phosphorylated Akt level preincubated for 2 hrs followed by EGF addition for 10 mins by western blot analysis. The format is cell-based.
For series [8] the test system is unchanged. In words: Inhibition of EGFR T790M/L858R mutant in EGF-stimulated human NCI-H1975 cells assessed as decrease in phosphorylated Erk level preincubated for 2 hrs followed by EGF addition for 10 mins by western blot analysis. The format is cell-based.
Series [9] has as its target T1, Epidermal growth factor receptor. In words: Inhibition of wild-type EGFR phosphorylation in EGF-stimulated human A431 cells preincubated for 2 hrs followed by EGF addition for 10 mins by western blot analysis. The format is cell-based. To be noted: A-431.
The target is the same in series [10]. In words: Inhibition of wild-type EGFR in EGF-stimulated human A431 cells assessed as decrease in phosphorylated Akt level preincubated for 2 hrs followed by EGF addition for 10 mins by western blot analysis. The format is cell-based. Conditions: A-431.
For series [11] the target is unchanged. Put plainly: Inhibition of wild-type EGFR in EGF-stimulated human A431 cells assessed as decrease in phosphorylated Erk level preincubated for 2 hrs followed by EGF addition for 10 mins by western blot analysis. The format is cell-based. Conditions: A-431.
The test system of series [12] is NCI-H1975. Put plainly: Effect on total EGFR level in human NCI-H1975 cells at 0.001 to 1 uM preincubated for 2 hrs followed by EGF addition for 10 mins by western blot analysis. The format is ADME, cell-based. Conditions: nci-h1975, 10 min.
Series [13] deals with NCI-H1975. In words: Effect on total Akt level in human NCI-H1975 cells at 0.001 to 1 uM preincubated for 2 hrs followed by EGF addition for 10 mins by western blot analysis. The format is ADME, cell-based. To be noted: nci-h1975, 10 min.
In series [14] the test system is NCI-H1975. Put plainly: Effect on total Erk level in human NCI-H1975 cells at 0.001 to 1 uM preincubated for 2 hrs followed by EGF addition for 10 mins by western blot analysis. The format is ADME, cell-based. Conditions: nci-h1975, 10 min.
Series [15] relates to NCI-H1975. Put plainly: Effect on total tubulin level in human NCI-H1975 cells at 0.001 to 1 uM preincubated for 2 hrs followed by EGF addition for 10 mins by western blot analysis. The format is ADME, cell-based. Conditions: nci-h1975, 10 min.

Sequence of Epidermal growth factor receptor (Homo sapiens), P00533 [L858R,T790M] (P00533 whole entry T790M/L858R, looked up): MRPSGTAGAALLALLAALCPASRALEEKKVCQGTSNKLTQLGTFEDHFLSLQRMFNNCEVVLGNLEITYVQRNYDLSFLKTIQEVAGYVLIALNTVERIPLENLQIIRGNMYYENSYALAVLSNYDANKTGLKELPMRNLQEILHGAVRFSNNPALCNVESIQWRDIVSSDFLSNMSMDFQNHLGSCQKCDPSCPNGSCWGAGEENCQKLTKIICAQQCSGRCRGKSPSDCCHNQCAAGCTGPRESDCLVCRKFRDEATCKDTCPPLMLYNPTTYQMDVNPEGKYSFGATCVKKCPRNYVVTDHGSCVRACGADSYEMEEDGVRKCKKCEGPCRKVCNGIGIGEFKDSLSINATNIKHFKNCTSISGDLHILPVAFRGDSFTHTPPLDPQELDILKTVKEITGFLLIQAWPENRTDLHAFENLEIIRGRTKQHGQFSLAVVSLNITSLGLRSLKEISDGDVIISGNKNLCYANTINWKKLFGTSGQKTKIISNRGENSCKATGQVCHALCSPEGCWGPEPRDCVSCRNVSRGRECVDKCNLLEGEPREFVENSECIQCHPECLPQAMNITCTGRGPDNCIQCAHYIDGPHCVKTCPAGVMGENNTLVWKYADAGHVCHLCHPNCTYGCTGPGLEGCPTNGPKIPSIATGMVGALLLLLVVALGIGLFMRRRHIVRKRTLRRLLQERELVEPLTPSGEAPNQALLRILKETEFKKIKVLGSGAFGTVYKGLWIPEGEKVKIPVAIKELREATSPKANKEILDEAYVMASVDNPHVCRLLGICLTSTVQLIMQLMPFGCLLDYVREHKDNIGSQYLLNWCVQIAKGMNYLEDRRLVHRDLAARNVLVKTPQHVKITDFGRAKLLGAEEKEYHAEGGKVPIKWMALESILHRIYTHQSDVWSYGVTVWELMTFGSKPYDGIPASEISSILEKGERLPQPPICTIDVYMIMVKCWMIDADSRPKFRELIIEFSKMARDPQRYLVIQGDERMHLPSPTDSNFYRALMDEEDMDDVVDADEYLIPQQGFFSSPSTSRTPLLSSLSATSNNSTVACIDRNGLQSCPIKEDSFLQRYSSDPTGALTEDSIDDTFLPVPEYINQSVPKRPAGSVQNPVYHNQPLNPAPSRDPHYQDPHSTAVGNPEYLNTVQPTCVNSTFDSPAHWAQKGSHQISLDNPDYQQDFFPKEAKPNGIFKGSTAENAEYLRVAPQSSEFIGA
Sequence of Epidermal growth factor receptor (Homo sapiens, UniProt P00533, L858R/T790M) (P00533 25-1210 T790M/L858R limits assumed): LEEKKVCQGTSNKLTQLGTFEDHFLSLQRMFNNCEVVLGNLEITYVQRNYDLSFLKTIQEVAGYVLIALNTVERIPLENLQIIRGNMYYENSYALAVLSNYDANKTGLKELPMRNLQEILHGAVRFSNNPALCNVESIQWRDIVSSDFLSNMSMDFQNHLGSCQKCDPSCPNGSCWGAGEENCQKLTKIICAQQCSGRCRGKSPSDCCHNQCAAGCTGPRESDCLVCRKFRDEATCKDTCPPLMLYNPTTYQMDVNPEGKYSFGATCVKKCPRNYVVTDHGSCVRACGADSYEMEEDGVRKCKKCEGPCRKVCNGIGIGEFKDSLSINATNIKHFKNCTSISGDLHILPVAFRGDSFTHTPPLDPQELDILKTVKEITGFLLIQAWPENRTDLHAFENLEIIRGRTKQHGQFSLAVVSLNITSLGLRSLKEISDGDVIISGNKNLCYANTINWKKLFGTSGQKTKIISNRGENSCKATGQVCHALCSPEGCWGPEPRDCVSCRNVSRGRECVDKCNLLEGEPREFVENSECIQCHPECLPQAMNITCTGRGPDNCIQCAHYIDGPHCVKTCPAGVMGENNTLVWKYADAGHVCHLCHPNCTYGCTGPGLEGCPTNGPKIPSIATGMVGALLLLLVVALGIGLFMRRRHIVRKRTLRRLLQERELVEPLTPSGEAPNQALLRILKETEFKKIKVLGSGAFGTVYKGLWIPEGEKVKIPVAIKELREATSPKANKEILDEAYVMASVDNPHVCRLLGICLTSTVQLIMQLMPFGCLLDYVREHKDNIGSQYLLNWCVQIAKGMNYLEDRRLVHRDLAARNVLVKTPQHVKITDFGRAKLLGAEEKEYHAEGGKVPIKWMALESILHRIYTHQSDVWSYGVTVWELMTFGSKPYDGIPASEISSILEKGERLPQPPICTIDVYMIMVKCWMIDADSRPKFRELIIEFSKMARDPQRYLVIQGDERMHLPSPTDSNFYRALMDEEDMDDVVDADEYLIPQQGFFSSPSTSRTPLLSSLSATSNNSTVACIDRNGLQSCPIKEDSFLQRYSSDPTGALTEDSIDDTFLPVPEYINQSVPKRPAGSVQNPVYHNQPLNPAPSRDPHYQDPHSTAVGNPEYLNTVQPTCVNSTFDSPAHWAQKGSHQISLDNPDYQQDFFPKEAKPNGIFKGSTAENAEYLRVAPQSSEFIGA
T1 sequence (P00533 whole entry): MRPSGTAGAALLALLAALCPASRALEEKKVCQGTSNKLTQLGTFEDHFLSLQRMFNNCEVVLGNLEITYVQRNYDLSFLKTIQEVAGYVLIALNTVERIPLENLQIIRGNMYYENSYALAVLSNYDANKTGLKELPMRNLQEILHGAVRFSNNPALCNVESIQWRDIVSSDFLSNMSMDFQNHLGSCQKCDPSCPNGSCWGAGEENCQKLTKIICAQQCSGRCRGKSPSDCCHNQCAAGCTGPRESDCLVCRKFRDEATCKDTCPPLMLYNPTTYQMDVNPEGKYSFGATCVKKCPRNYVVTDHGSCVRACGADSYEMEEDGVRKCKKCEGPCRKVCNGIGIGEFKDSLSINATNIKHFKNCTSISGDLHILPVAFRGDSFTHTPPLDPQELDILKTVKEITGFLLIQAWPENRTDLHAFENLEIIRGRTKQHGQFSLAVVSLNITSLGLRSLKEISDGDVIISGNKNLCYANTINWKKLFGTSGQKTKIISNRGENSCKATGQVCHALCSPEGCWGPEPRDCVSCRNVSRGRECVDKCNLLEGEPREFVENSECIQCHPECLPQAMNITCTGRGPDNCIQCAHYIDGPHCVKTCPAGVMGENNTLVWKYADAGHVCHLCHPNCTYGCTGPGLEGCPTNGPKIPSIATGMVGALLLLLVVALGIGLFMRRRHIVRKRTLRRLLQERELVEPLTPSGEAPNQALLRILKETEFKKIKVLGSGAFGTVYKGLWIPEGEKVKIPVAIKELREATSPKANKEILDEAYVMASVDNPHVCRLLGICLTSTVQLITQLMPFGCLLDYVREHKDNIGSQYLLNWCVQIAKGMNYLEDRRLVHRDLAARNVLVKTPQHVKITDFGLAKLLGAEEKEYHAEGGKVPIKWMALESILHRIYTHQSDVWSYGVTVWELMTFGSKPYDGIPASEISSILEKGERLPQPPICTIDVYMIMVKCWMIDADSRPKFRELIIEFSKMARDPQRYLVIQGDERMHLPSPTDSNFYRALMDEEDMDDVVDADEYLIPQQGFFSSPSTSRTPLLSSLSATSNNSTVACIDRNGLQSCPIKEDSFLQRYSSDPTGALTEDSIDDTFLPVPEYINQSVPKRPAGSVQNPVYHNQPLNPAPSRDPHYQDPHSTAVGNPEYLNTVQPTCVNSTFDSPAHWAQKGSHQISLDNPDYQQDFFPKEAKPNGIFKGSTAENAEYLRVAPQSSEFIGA

Take `C=CC(=O)Nc1cccc(Oc2nc(Nc3ccc(N4CCN(C(C)=O)CC4)cc3OC)ncc2C(F)(F)F)c1`: the inhibition entry in series [1] is “Dose-dependent effect”. For the same compound, the inhibition entry in [2] and in series [3] was “Active” throughout. For the same compound, the results for the IC50 in the series on A-431 and in the series on NCI-H1975 [4] were 1880 nM and 88 nM, respectively.
In the case of `C=CC(=O)Nc1cccc(Oc2nc(Nc3ccc(N4CCN(C(=O)C(C)C)CC4)cc3OC)ncc2SC)c1`, the IC50 in series [5] was 174 nM; in [6] it was 3.6 nM; in the series with A-431, 2010 nM; with NCI-H1975 [4], 200 nM.
Regarding `C=CC(=O)Nc1cccc(Oc2nc(Nc3ccc(N4CCN(C(C)=O)CC4)cc3OC)ncc2SC)c1`, the IC50 was 87.5 nM in series [5], 0.7 nM in series [6], 4580 nM in the series with A-431 and 194 nM with NCI-H1975 [4].
Turning to `C=CC(=O)Nc1cc(Nc2nccc(-c3cn(C)c4ccccc34)n2)c(OC)cc1N(C)CCN(C)C` [OSIMERTINIB], the IC50 amounted to […] in the series on A-431 and […] in the series on NCI-H1975 [4].
For `C=CC(=O)Nc1cccc(Oc2nc(Nc3ccc(N4CCN(S(C)(=O)=O)CC4)cc3OC)ncc2SC)c1`, the IC50 in series [5] was 730 nM; in series [6], 7.3 nM; in the series with A-431, > 10000 nM; with NCI-H1975 [4], 1690 nM.
In the case of `C=CC(=O)Nc1cccc(Oc2nc(Nc3ccc(N4CCN(C(=O)CC)CC4)cc3OC)ncc2SC)c1`, the IC50 in [5] worked out at 154 nM; in [6], 5.8 nM; in the series on A-431, 4420 nM; in the series with NCI-H1975 [4], 148 nM. The inhibition result in series [1], in series [7], in series [8], in series [9], in series [10] and in series [11] was “Dose-dependent effect” in each case.
With `C=CC(=O)Nc1cccc(Oc2nc(Nc3ccc(N4CCN(C(=O)CC)CC4)cc3OC(F)F)ncc2SC)c1`, the 50% inhibitory concentration (IC50) was 46.4 nM in [5], 3.7 nM in [6], 4920 nM in the series on A-431 and 88 nM with NCI-H1975 [4]. In addition, the inhibition result in series [1], in series [7], in series [8], in [9], in series [10] and in series [11] was “Dose-dependent effect” each time.
For the compound `C=CC(=O)Nc1cccc(Oc2nc(Nc3ccc(N4CCN(C(=O)C(C)(C)C)CC4)cc3OC)ncc2SC)c1`, the half-inhibitory concentration (IC50) was 410 nM in [5], 9.6 nM in series [6], 9220 nM in the series with A-431 and 577 nM with NCI-H1975 [4].
`C=CC(=O)Nc1cccc(Oc2nc(Nc3ccc(N4CCCN(C(C)=O)CC4)cc3OC)ncc2SC)c1`: the IC50 in series [5] was 389 nM; in [6], 1.8 nM; in the series on A-431, 4300 nM; with NCI-H1975 [4], 573 nM.
As to `C=CC(=O)Nc1cccc(Oc2nc(Nc3ccc(N4CCN(C)CC4)cc3OC)ncc2SC)c1`, the IC50 in series [5] is 272 nM; in series [6], 0.4 nM; with A-431 it was 3880 nM; in the series on NCI-H1975 [4], 167 nM. The inhibition result in series [1] was “Dose-dependent effect”. Further, the inhibition entry in series [2] and in [3] was “Active” each time. Besides, the Activity result in the series with NCI-H1975 [12], with NCI-H1975 [13], with NCI-H1975 [14] and in the series with NCI-H1975 [15] was “Non-toxic” each time.
`C=CC(=O)Nc1cccc(Oc2nc(Nc3ccc(N4CCN(C)CC4)cc3OC)ncc2Cl)c1`: the IC50 with NCI-H1975 [4] came out at 95 nM.
With `C=CC(=O)Nc1cccc(Oc2nc(Nc3ccc(N4CCN(C(C)=O)CC4)cc3OC(F)F)ncc2SC)c1`, the IC50 in [5] is 38.8 nM; in series [6], 2.8 nM; with A-431, 4650 nM; in the series with NCI-H1975 [4] it was 20 nM. In addition, the inhibition result in series [1], in [7], in [8], in [9], in series [10] and in series [11] was “Dose-dependent effect” each time.
With `C=CC(=O)Nc1cccc(Oc2nc(Nc3ccc(N4CCN(C(=O)C(F)(F)F)CC4)cc3OC)ncc2SC)c1`, the IC50 was 248 nM in series [5], 4.4 nM in series [6], 1190 nM in the series on A-431 and 404 nM with NCI-H1975 [4].
